System: Caenorhabditis elegans
Assay: Nematocidal activity against Caenorhabditis elegans assessed as revised death rate after 24 to 48 hrs
Format: functional
Parameters: concentration or dose not given beside the values

| SMILES | Activity |
| --- | --- |
| CC1=CC=CC2(C)CN(C)N(C(=O)N(C)c3ccccc3)N=C12 (stereo unspecified) | 74.2% |
| CC1=CC=CC2(C)CN(C)N(C(=S)Nc3ccccc3)N=C12 (stereo unspecified) | 20.9% |
| CCCCCCCCCCC(=O)N1N=C2C(C)=CC=CC2(C)CN1C (stereo unspecified) | 20.3% |
| CC1=CC=CC2(C)CN(C)N(C(=O)Nc3ccccc3)N=C12 (stereo unspecified) | 43.8% |
| CC(=O)N1N=C2C(C)=CC=CC2(C)CN1C (stereo unspecified) | 100% |
| CCCCCCCCC(=O)N1N=C2C(C)=CC=CC2(C)CN1C (stereo unspecified) | 97% |
| CN=C=S [METHYLISOTHIOCYANATE] | 100% |
| CCCCCCCCCC(=O)N1N=C2C(C)=CC=CC2(C)CN1C (stereo unspecified) | 64.6% |
| CCCCCCCC(=O)N1N=C2C(C)=CC=CC2(C)CN1C (stereo unspecified) | 10.3% |
| CC1=CC=CC2(C)CN(C)N(C(=S)N(C)c3ccccc3)N=C12 (stereo unspecified) | 100% |
| CCCCCCCCCCCC(=O)N1N=C2C(C)=CC=CC2(C)CN1C (stereo unspecified) | 17.2% |
